Data: ChEMBL document CHEMBL5620353, “Novel antifungal triazoles with alkynyl-methoxyl side chains: Design, synthesis, and biological activity evaluation” (Eur J Med Chem, 2023)
Converted amounts (≈) assume the structure as drawn. The source made the active and inactive calls. No cut-off for these calls is given here.

Experiments:
[1] = system: Candida albicans; assay: Antifungal activity against Candida albicans SC5314 infected in Galleria mellonella larvae assessed as increase in survival rate at 2 mg/kg measured after 10 days post inoculation; assay type: functional, organism-based; conditions: time 10.0 day
[2] = system: Candida albicans; assay: Antifungal activity against Candida albicans SC5314 assessed as reduction in fungal viability incubated for 48 hrs by spot assay; assay type: functional, organism-based; conditions: dose 0.5-1 µg/ml
[3] = system: Saccharomyces cerevisiae; assay: Antifungal activity against recombinant Saccharomyces cerevisiae Y525 overexpressing CaMdr1 assessed as inhibition of fungal growth incubated for 48 hrs by microbroth dilution method; assay type: functional
[4] = system: [Candida] auris; assay: Antifungal activity against fluconazole-resistant Candida auris 891 assessed as inhibition of fungal growth incubated for 48 hrs by microbroth dilution method; assay type: functional; conditions: Candidozyma auris
[5] = molecular target: T1, Lanosterol 14-alpha demethylase (Candida albicans (strain SC5314 / ATCC MYA-2876) (Yeast), UniProt P10613); assay: Inhibition of Lanosterol 14-alpha demethylase in Candida albicans SC5314 assessed as reduction in ergosterol level at 8 ug/ml incubated for 8 hrs by GC-MS analysis relative to control; conditions: at 8 µg/mL
[6] = system: Nakaseomyces glabratus; assay: Antifungal activity against Candida glabrata 537 assessed as reduction in fungal viability incubated for 48 hrs by spot assay; assay type: functional, organism-based; conditions: dose 0.5-1 µg/ml
[7] = system: Candida albicans; assay: Antifungal activity against Candida albicans SC5314 assessed as inhibition of fungal growth incubated for 48 hrs by spot assay; assay type: functional, organism-based; conditions: dose 0.5-1 µg/ml
[8] = system: Candida albicans; assay: Antifungal activity against Candida albicans SC5314 infected in Galleria mellonella larvae assessed as prolongation of survival time at 2 mg/kg measured after 10 days post inoculation; assay type: functional, organism-based; conditions: time 10.0 day
[9] = system: Saccharomyces cerevisiae; assay: Antifungal activity against recombinant Saccharomyces cerevisiae Y2300 overexpressing ScErg11 assessed as inhibition of fungal growth incubated for 48 hrs by microbroth dilution method; assay type: functional
[10] = Selectivity index, ratio of IC50 for HUVEC cells to MIC for Candida glabrata 537; assay type: toxicity; conditions: human, HUVEC cells versus Candida glabrata 537; read-out: Selectivity Index
[11] = molecular target: T1, Lanosterol 14-alpha demethylase; assay: Inhibition of Lanosterol 14-alpha demethylase in Candida albicans SC5314 assessed as increase in obtusifoliol level at 8 ug/ml incubated for 8 hrs by GC-MS analysis relative to control; set-up: scale not given: the % may be the effect or the level left; conditions: at 8 µg/mL
[12] = system: [Candida] auris; assay: Antifungal activity against Candida auris 891 assessed as inhibition of fungal growth incubated for 48 hrs by spot assay; assay type: functional, organism-based; conditions: Candidozyma auris, dose 0.5-1 µg/ml
[13] = system: Candida albicans; assay: Antifungal activity against Candida albicans SC5314 infected in Galleria mellonella larvae assessed as larval survival rate at 8 mg/kg measured after 10 days post inoculation relative to control; assay type: functional; conditions: SC5314, 240 h, time 10 day
[14] = molecular target: T1, Lanosterol 14-alpha demethylase; assay: Inhibition of Lanosterol 14-alpha demethylase in Candida albicans SC5314 assessed as increase in eburicol level at 8 ug/ml incubated for 8 hrs by GC-MS analysis relative to control; set-up: scale not given: the % may be the effect or the level left; conditions: at 8 µg/mL
[15] = system: Nakaseomyces glabratus; assay: Potency index, ratio of fluconazole MIC to test compound MIC for antifungal activity against Candida glabrata 537 assessed as inhibition of fungal growth incubated for 48 hrs by microbroth dilution method; assay type: functional
[16] = system: Candida albicans; assay: Antifungal activity against Candida albicans 904 assessed as reduction in fungal viability incubated for 48 hrs by spot assay; assay type: functional, organism-based; conditions: dose 0.5-1 µg/ml
[17] = system: Nakaseomyces glabratus; assay: Antifungal activity against Candida glabrata 537 assessed as inhibition of fungal growth incubated for 48 hrs by microbroth dilution method; assay type: functional
[18] = system: Candida albicans; assay: Inhibition of biofilm formation in Candida albicans SC5314 at 64 ug/ml incubated for 24 hrs by XTT reduction assay relative to control; assay type: functional
[19] = system: Candida albicans; assay: Antifungal activity against Candida albicans SC5314 infected in Galleria mellonella larvae assessed as median survival time at 8 mg/kg measured after 10 days post inoculation; assay type: functional; conditions: time 10 day
[20] = system: Cryptococcus neoformans; assay: Antifungal activity against Cryptococcus neoformans 32,609 assessed as inhibition of fungal growth incubated for 72 hrs by microbroth dilution method; assay type: functional
[21] = system: Candida parapsilosis; assay: Antifungal activity against Candida parapsilosis 22019 assessed as inhibition of fungal growth incubated for 48 hrs by spot assay; assay type: functional, organism-based; conditions: dose 0.5-1 µg/ml
[22] = system: Candida albicans; assay: Antifungal activity against Candida albicans assessed as reduction in hyphal length at 16 ug/ml; assay type: functional, organism-based; conditions: dose 16.0 µg/ml
[23] = system: Candida albicans; assay: Antifungal activity against Candida albicans SC5314 infected in Galleria mellonella larvae assessed as delay in time of larval death at 8 mg/kg measured after 10 days post inoculation; assay type: functional, organism-based; conditions: time 10.0 day
[24] = molecular target: T1, Lanosterol 14-alpha demethylase; assay: Inhibition of Lanosterol 14-alpha demethylase in Candida albicans SC5314 assessed as increase in 14alpha-methylfecosterol level at 8 ug/ml incubated for 8 hrs by GC-MS analysis relative to control; set-up: scale not given: the % may be the effect or the level left; conditions: at 8 µg/mL
[25] = system: Saccharomyces cerevisiae; assay: Antifungal activity against recombinant Saccharomyces cerevisiae Y2374 overexpressing CgErg11 assessed as inhibition of fungal growth incubated for 48 hrs by microbroth dilution method; assay type: functional
[26] = system: Nakaseomyces glabratus; assay: Antifungal activity against Candida glabrata 537 assessed as inhibition of fungal growth incubated for 48 hrs by spot assay; assay type: functional, organism-based; conditions: dose 0.5-1 µg/ml
[27] = system: Cryptococcus neoformans; assay: Antifungal activity against Cryptococcus neoformans 32,609 assessed as reduction in fungal growth and viability at 0.5 to 1 ug/ml incubated for 48 hrs by spot assay; assay type: functional, organism-based; conditions: dose 0.5-1 µg/ml
[28] = system: Candida parapsilosis; assay: Antifungal activity against Candida parapsilosis 22019 assessed as reduction in fungal viability incubated for 48 hrs by spot assay; assay type: functional, organism-based; conditions: dose 0.5-1 µg/ml
[29] = system: Saccharomyces cerevisiae; assay: Resistance index, ratio of MIC for recombinant Saccharomyces cerevisiae Y525 overexpressing CaMdr1 to MIC for recombinant Saccharomyces cerevisiae Y2411 overexpressing ScErg11; assay type: functional
[30] = system: Candida albicans; assay: Antifungal activity against Candida albicans assessed as increase in pseudohyphae at 16 ug/ml; assay type: functional, organism-based; conditions: dose 16.0 µg/ml
[31] = system: Candida albicans; assay: Antibiofilm activity against Candida albicans SC5314 preformed biofilms incubated for 24 hrs by XTT reduction assay; assay type: functional, organism-based; conditions: dose 0.25-64 µg/ml
[32] = system: [Candida] auris; assay: Antifungal activity against Candida auris 891 assessed as reduction in fungal viability incubated for 48 hrs by spot assay; assay type: functional, organism-based; conditions: Candidozyma auris, dose 0.5-1 µg/ml
[33] = molecular target: T1, Lanosterol 14-alpha demethylase; assay: Inhibition of Lanosterol 14-alpha demethylase in Candida albicans SC5314 assessed as increase in lanosterol level at 8 ug/ml incubated for 8 hrs by GC-MS analysis (reference value: 2.79%); set-up: scale not given: the % may be the effect or the level left; conditions: at 8 µg/mL
[34] = Metabolic stability in human liver microsomes assessed as intrinsic clearance at 1 uM preincubated for 10 mins followed by NADPH addition and measured upto 60 mins by LC-MS/MS analysis; assay type: ADME, Microsome; conditions: time < 70 min, read-out: CLH
[35] = system: Candida albicans; assay: Antifungal activity against Candida albicans 904 assessed as inhibition of fungal growth incubated for 48 hrs by spot assay; assay type: functional, organism-based; conditions: dose 0.5-1 µg/ml
[36] = system: Candida albicans; assay: Antifungal activity against Candida albicans SC5314 assessed as inhibition of fungal growth at 16 ug/ml measured after 24 hrs by optical density based method; assay type: functional
[37] = molecular target: T1, Lanosterol 14-alpha demethylase; assay: Inhibition of Lanosterol 14-alpha demethylase in Candida albicans SC5314 assessed as remaining ergosterol level at 8 ug/ml incubated for 8 hrs by GC-MS analysis (reference value: 89.76%); conditions: at 8 µg/mL

T1 sequence (P10613 whole entry): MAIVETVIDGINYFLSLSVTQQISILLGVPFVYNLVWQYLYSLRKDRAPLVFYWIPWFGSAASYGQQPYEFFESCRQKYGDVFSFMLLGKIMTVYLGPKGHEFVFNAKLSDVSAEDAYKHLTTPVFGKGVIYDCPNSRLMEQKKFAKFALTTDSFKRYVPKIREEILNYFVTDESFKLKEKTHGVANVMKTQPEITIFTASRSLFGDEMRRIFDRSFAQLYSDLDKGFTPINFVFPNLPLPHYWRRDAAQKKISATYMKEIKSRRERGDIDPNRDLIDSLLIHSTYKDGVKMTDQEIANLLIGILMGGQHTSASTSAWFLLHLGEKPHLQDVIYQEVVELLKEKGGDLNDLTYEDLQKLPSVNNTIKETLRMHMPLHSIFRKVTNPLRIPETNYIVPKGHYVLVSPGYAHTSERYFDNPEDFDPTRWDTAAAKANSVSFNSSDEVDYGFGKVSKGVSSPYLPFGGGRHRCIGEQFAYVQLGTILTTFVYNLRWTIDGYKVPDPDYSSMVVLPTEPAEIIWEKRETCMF

Row | Compound | Activity [2] | MIC [3] | MIC [4] | inhibition (INH) [5] | Activity [6] | Activity [7] | MIC [9] | selectivity ratio [10] | Activity [12] | Ratio [15] | Activity [16] | MIC [17] | inhibition at 64 µg/mL [18] | MIC [20] | Activity [21] | MIC [25] | Activity [27] | Ratio [29] | Activity [31] | microsomal CLint at 1 µM [34] | further results
1 | C[C@@H](OCC#Cc1ccc(C#N)cc1)[C@](O)(Cn1cncn1)c1ccc(F)cc1F | Dose-Dependent Effect | 0.25 mg/L | 16 mg/L (≈ 39.2 µM) | ~ 100% | Dose-Dependent Effect | Dose-Dependent Effect | 0.031 mg/L | > 500 | Dose-Dependent Effect | >=8 | Dose-Dependent Effect | ≤ 0.125 mg/L | 43.9% | 0.5 mg/L (≈ 1.22 µM) | Dose-Dependent Effect | 0.031 mg/L | Active | >=16 | Dose-Dependent Effect | 25.6 µL/min/mg | Activity [1]: inactive; Activity [8]: Active; Activity [11]: 12.82%; survival at 8 mg/kg [13]: 40%; Activity [14]: 13.13%; MST [19]: 10 days; Activity [22]: Active; Activity [23]: Active; Activity [24]: 36.87%; Activity [26]: Dose-Dependent Effect; Activity [28]: Dose-Dependent Effect; Activity [30]: Active; Activity [32]: Dose-Dependent Effect; Activity [33]: 37.18%; Activity [35]: Dose-Dependent Effect; inhibition at 16 µg/mL [36]: 100%
2 | C[C@@H](OCC#Cc1ccc(F)cc1F)[C@](O)(Cn1cncn1)c1ccc(F)cc1F | Dose-Dependent Effect | 0.25 mg/L | 32 mg/L (≈ 76.3 µM) | ~ 100% | Dose-Dependent Effect | Dose-Dependent Effect | 0.063 mg/L | > 500 | Dose-Dependent Effect | >=8 | Dose-Dependent Effect | ≤ 0.125 mg/L | 37% | 0.5 mg/L (≈ 1.19 µM) | Dose-Dependent Effect | 0.063 mg/L | Active | >=16 | Dose-Dependent Effect | 26.2 µL/min/mg | Activity [26]: Dose-Dependent Effect; Activity [28]: Dose-Dependent Effect; Activity [32]: Dose-Dependent Effect; Activity [35]: Dose-Dependent Effect
3 | C[C@@H](OCC#Cc1ccncc1)[C@](O)(Cn1cncn1)c1ccc(F)cc1F | – | 0.25 mg/L | 32 mg/L (≈ 83.2 µM) | – | – | – | 0.031 mg/L | > 500 | – | >=8 | – | ≤ 0.125 mg/L | 43.4% | ≤ 0.125 mg/L | – | 0.063 mg/L | Active | >=16 | Dose-Dependent Effect | 188 µL/min/mg | Activity [37]: 1.1%
